Test results: US20040266862A1, “Method of improving animal tissue quality by supplementing the animal diet with mixed tocotrienols” (priority 2003, published 2004)
Marks after values point to notes of the source that are not given here.

Experiments:
Assay type in all cases: in vivo
cattle [1] = assay: 2002-03 cattle feed test: moisture, fat and TBARS content of raw ground beef patties; conditions: 300 ppm in diet
Excerpt: (§1) Applicants also assessed the effects of antioxidant supplementation on beef quality in an experiment in which ground beef and steaks from cattle fed one of four dietary treatments were compared. Forty steers (average weight 1082 lbs.) were blocked by weight (heavy or light) and assigned to eight outdoor group pens. Pens were randomly assigned within weight blocks to four dietary treatments (two pens per dietary treatment): control, 300 ppm gamma-tocopherol, 150 ppm MT or 300 ppm MT. As in the swine and poultry feed trials, the MT supplement was obtained commercially from Fuji Chemical Industries (U.S.A.) Inc. of Robbinsville, N.J., and contained 7.5% alpha-, 12.3% gamma- and 3.0% delta-tocotrienol for a total MT content of 22.8 wt %, as well as 7.2% alpha-tocopherol. The control diet was not supplemented with even the NRC (1996) recommended level of vitamin E (15 to 60 ppm). […]
(§2) The dietary treatments were top-dressed onto the feed and mixed with the morning daily feed. The target level for feeding gamma-tocopherol was calculated to be 2 g per animal per day. […]
Four pounds of lean and one pound of fat were harvested from each steer and mixed to produce ground beef patties with a targeted fat content of 20%. […] The pre- and post-display ground beef patties were analyzed for oxidative stability by determining their TBARS concentration.

cattle [2] = assay: 2002-03 cattle feed test: raw ribeye steak subjective color; conditions: 300 ppm in diet
Excerpt: (§3) Applicants also assessed the effects of antioxidant supplementation on beef quality in an experiment in which ground beef and steaks from cattle fed one of four dietary treatments were compared. Forty steers (average weight 1082 lbs.) were blocked by weight (heavy or light) and assigned to eight outdoor group pens. Pens were randomly assigned within weight blocks to four dietary treatments (two pens per dietary treatment): control, 300 ppm gamma-tocopherol, 150 ppm MT or 300 ppm MT. As in the swine and poultry feed trials, the MT supplement was obtained commercially from Fuji Chemical Industries (U.S.A.) Inc. of Robbinsville, N.J., and contained 7.5% alpha-, 12.3% gamma- and 3.0% delta-tocotrienol for a total MT content of 22.8 wt %, as well as 7.2% alpha-tocopherol. The control diet was not supplemented with even the NRC (1996) recommended level of vitamin E (15 to 60 ppm).
(§4) The steers were fed rolled corn diets with added cottonseed hulls that contained little or no vitamin E. The corn grain used in this trial was more than two years old so that it would be largely depleted of vitamin E. The steers were gradually adapted to an 80% grain-based diet and fed the low vitamin E diet for over one month prior to the start of the dietary supplementation period. Steers then were fed their respective dietary treatments for 54 days, starting Dec. 18, 2002 and ending Feb. 10, 2003.
(§5) The dietary treatments were top-dressed onto the feed and mixed with the morning daily feed. The target level for feeding gamma-tocopherol was calculated to be 2 g per animal per day. Mineral oil was used as a carrier for the gamma-tocopherol. The two target amounts of mixed tocotrienols were equivalent to, or half of, the gamma tocopherol level. The MT compounds were diluted with cornmeal to supply the required amount of mixed tocotrienols.
(§6) On the day following delivery of the beef rib sections to Kansas State University, ribs were boned out, vacuum packaged, and held at approximately (2° C.) until thirteen days postmortem, at which time the ribs were faced at the 13th rib region. The ribs were cut into 2.54 cm thick ribeye steaks, one steak from each rib to be used for color appraisal under retail display conditions and one steak for sensory evaluation. The steaks for sensory evaluation were vacuum-packaged and frozen.
(§7) The ribeye steaks utilized for color evaluation were placed onto 17S foam trays with meat, fish, and poultry pads (Dri-Loc AC-50) and wrapped with polyvinyl chloride film. The packaged steaks were placed under simulated retail display at 34±3° F. under 1614 lux (150±5 foot candles) light intensity in open-top display cases. The cases were programmed to defrost twice daily at 12-hour intervals. Case temperature was monitored using temperature recorders. An eight-member trained panel assigned subjective color and discoloration scores on days 0, 1, 2, 3, 4, 5 and 7. Pre-storage color was evaluated on an eight point scale. Panelists evaluated post-13 day storage color using a five-point scale with 0.5 intervals. Minolta color measurements were taken on days 0 and 7 using a Hunter Lab MiniScan™ Spectrophotometer (1.25 inch diameter aperture).

cattle [3] = assay: 2002-03 cattle feed test: raw ribeye steak Hunter Lab color evaluation
Excerpt: as §3, §4, §5, §6, §7

cattle [4] = assay: 2002-03 cattle feed test: TBARS content of raw ribeye steaks; conditions: 300 ppm in diet
Excerpt: as §1, with “alpha-tocopherol.” for “alpha-tocopherol. The control diet was not supplemented with even the NRC (1996) recommended level of vitamin E (15 to 60 ppm).”
as §2
The ribeye steaks utilized for color evaluation were placed onto 17S foam trays with meat, fish, and poultry pads (Dri-Loc AC-50) and wrapped with polyvinyl chloride film. […] Case temperature was monitored using temperature recorders. […] Pre-storage color was evaluated on an eight point scale. Panelists evaluated post-13 day storage color using a five-point scale with 0.5 intervals. […]

cattle [5] = assay: 2002-03 cattle feed test: sensory characteristics of cooked ribeye steaks; conditions: freshly cooked ribeye steaks; scale of 1 to 8; 300 ppm in diet
Excerpt: as §3, §4, §5, §6
The frozen ribeye steaks designated for sensory evaluation were thawed for >24 hours at 3-4° C. and cooked in a Blodgett oven set at 163° C. The steaks were turned at 40° C. and removed from the oven at 70° C. The cooked steaks were cut into 2.54 cm×1.25 cm×1.25 cm cubes. The cubes were placed in double boilers and held warm on burners set at 107° C. until serving. Each panelist received two cubes in random order with a maximum of eight samples per session. An eight-point scale with 0.5 increments was used to score sensory attributes, with 8 being most tender, flavorful, or juicy and 1 being the least tender, flavorful, or juicy.

SMILES: Cc1c(O)cc2c(c1C)O[C@](C)(CCC[C@H](C)CCC[C@H](C)CCCC(C)C)CC2 [GT, gamma-tocopherol]
- TBARS content (cattle [1]; Post-display (5 days retail display)): 0.663^ab Mg Malonaldehyde/1000 g ground beef
- TBARS content (cattle [1]; Pre-display): 0.173 Mg Malonaldehyde/1000 g ground beef
- subjective color score (cattle [2]; Pre-storage, eight point scale (1.0 = Bleached red, 8.0 = Very dark red)): 4.34
- subjective color score (cattle [2]; post-13 day storage, display Day 0, five-point scale (1.0 = Very bright cherry red, 5.0 = Very dark red/purple to brown)): 2.19
- subjective color score (cattle [2]; post-13 day storage, display Day 1, five-point scale): 2.28
- subjective color score (cattle [2]; post-13 day storage, display Day 2, five-point scale): 2.29
- subjective color score (cattle [2]; post-13 day storage, display Day 3, five-point scale): 2.61
- subjective color score (cattle [2]; post-13 day storage, display Day 4, five-point scale): 2.80^b
- subjective color score (cattle [2]; post-13 day storage, display Day 5, five-point scale): 3.02^b
- subjective color score (cattle [2]; post-13 day storage, display Day 7, five-point scale): 3.29^b
- Pre-display pH (cattle [3]; 300 ppm in diet): 5.53
- Hunter L (cattle [3]; display Day 0, 300 ppm in diet): 41.35
- Hunter a (cattle [3]; display Day 0, 300 ppm in diet): 32.82
- Hunter b (cattle [3]; display Day 0, 300 ppm in diet): 25.33
- Hunter L (cattle [3]; display Day 7, 300 ppm in diet): 40.03^b
- Hunter a (cattle [3]; display Day 7, 300 ppm in diet): 30.26^b
- Hunter b (cattle [3]; display Day 7, 300 ppm in diet): 23.35^b
- TBARS content (cattle [4]; Post-display): 0.411^b Mg Malonaldehyde/1000 g steak
- TBARS content (cattle [4]; Pre-display): 0.076 Mg Malonaldehyde/1000 g steak
- Flavor intensity (cattle [5]): 5.9
- Juiciness (cattle [5]): 5.7
- Off-flavor intensity (cattle [5]): 7.7
- Overall tenderness (cattle [5]): 6.1^a
- Warmed over flavor (cattle [5]): 8.0
